Laboratory results as given in patent US20050132448A1, “Assay for beta cell toxic macrolides” (priority 2001, published 2005).
“Also recorded” adds a separate entry of the source.

Legend:
NOD/lt mice = experiment: Acceleration of diabetes onset in NOD mice; assay type: in vivo; details: 12 ng per gram i.p. on 5 consecutive days, 11-week-old female mice
Method: The NOD mouse develops spontaneous diabetes due to an autoimmune mediated destruction of the pancreatic islet β-cells. The characteristics of diabetes development in the NOD mouse parallel those in humans, making the NOD mouse a useful model of human Type 1 diabetes. Lymphocytic infiltrates in the pancreatic islets, termed insulitis, first develops in NOD mice soon after weaning at 4 weeks of age and hyperglycaemia first appears from 18 to 32 weeks of age. Bafilomycin A1 was administered to NOD mice to test whether the onset of hyperglycaemia was accelerated.
Eleven-week-old female NOD/lt mice were injected intraperitoneally with either 12 ng per gram body weight of bafilomycin A1 (10 mice) or phosphate buffered saline carrier solution (10 mice) on each of 5 consecutive days. Blood glucose was monitored weekly and diabetes defined as a blood glucose measurement greater than 11 mmol/L.

Balb/c mice [1] = experiment: Intra-islet insulin by indirect immunofluorescence on pancreas sections; assay type: in vivo
Method: FIG. 2 is a graphical representation of vacuolar ATPase inhibition causing increased islet insulin content of secretory granules in islet β cells. Infra-islet insulin was detected in paraffin embedded sections by indirect immunofluorescence using an anti-pig insulin antibody. Digitised images collected on an epifluorescent microscope were analysed for staining density using MCID image analysis software to provide a semi-quantitative measure of the amount of bound anti-insulin antibody. At least 9 islets were measured for each of 5 control mice and 6 bafilomycin A1-treated mice, and individual values for each islet from all mice in each group were combined for analysis. A measurement was made in each islet, and the background measured in exocrine tissue adjacent to the same islet was subtracted. Units are arbitrary fluorescence units and the data are expressed as the mean and standard deviation.
The pancreas, liver, kidney and brain were dissected from anaesthetised mice and immediately fixed in formalin. […] Endogenous peroxidase activity was inactivated using 0.5% hydrogen peroxide in methanol prior to the antibody incubations and bound HRP conjugated antibody was detected using Sigma FAST-DAB peroxidase tablets. FITC was detected using an Olympus epifluorescence microsocope and images were captured and analysed using a digital camera and MCID software. […]

Balb/c mice [2] = experiment: Plasma immunoreactive insulin (radioimmunoassay); assay type: in vivo; details: 7 days after treatment
Method: Male Balb/c mice were provided by the Monash University Central Animal House and Breeding Facility. The Monash University Department of Biochemistry Animal Ethics Committee approved all animal experimentation. Bafilomycin A1 (Sigma) was dissolved in 70% ethanol then diluted 1 in 10 with sterile phosphate buffered saline (PBS) to give a working stock of 4.8 μg/ml. Groups of between 3 and 9 mice as indicated were administered 12 μg per kilogram (body weight) bafilomycin A1 by intraperitoneal injection, which should achieve a final concentration in the blood of 275 nM bafilomycin A1 assuming a blood volume of 70 ml per kg for mice. […] Control mice received the ethanol/PBS carrier solution that lacked the inhibitor.
Groups of 9 mice were treated with bafilomycin A1 or carrier solution then fasted, anaesthetised with penotobarbitone and challenged with glucose as described for the OGTT. Blood samples for insulin assay were collected from the orbital plexus from fasted mice or from mice 15 minutes after glucose challenge using 4×75 μl haematocrit tubes for each bleed. Serum samples were diluted 1 in 5 or 1 in 20 then assayed in duplicate for insulin content using a Linco sensitive rat insulin radioimmunoassay kit. […] Insulin content was determined by sensitive rat insulin RIA using a 1 in 1,000 dilution of the homogenates.

F-ATPase = details: 275 nM; cited from earlier work
vATPase = details: 275 nM; cited from earlier work
Balb/c mice [3] = experiment: Long-term effects on random blood glucose, weight and islet morphology/size; assay type: in vivo
Method: FIG. 6 is a graphical representation of islet size following administration of bafilomycin A1. Reduced islet size is a long-term consequence of vacuolar ATPase inhibition. Pancreas morphology was examined at either 1, 7, 26 or 90 days after administration of bafilomycin A1. Islet size was determined by measuring the areas of the pancreas sections positive for staining with insulin antibody using MCID software. • Controls—223 islets from 12 mice • 1 day—81 islets from 3 mice • 7 days—125 islets from 3 mice • 26 days—90 islets from 4 mice • 90 days—81 islets from 4 mice • The black square represents the median, the dotted boxes 25-75th percentiles, bars the 10-90th percentiles, and outliers by dots.
The pancreas, liver, kidney and brain were dissected from anaesthetised mice and immediately fixed in formalin. Paraffin embedded sections (4 μm) were either stained with haemotoxylin and eosin or prepared for immunohistochemistry or indirect immunofluorescence. Immunostaining was performed on de-paraffinised sections as follows. The section was blocked in PBS containing 1% skim milk powder for 1 hour. Anti-insulin antiserum raised in Guinea pig (Dako) was diluted 1 in 50 in PBS 1% skim milk powder and left at room temperature for 60 minutes. Sections were washed in PBS and incubated with 1:200 dilution of horse radish peroxidase conjugated anti-guinea pig antiserum (Sigma) or a 1:400 dilution of FITC-conjugated anti-guinea pig serum (Sigma) for 1 hour. Endogenous peroxidase activity was inactivated using 0.5% hydrogen peroxide in methanol prior to the antibody incubations and bound HRP conjugated antibody was detected using Sigma FAST-DAB peroxidase tablets. FITC was detected using an Olympus epifluorescence microsocope and images were captured and analysed using a digital camera and MCID software.
The long-term effects of bafilomycin A1 on blood glucose concentrations and islet morphology were investigated in 4 mice treated twice with a weekly interval. Random blood glucose levels (RBG) and weight were determined, weekly over 90 days and results were compared to a control group of 3 mice treated with carrier solution.

## CO/C1=C\C(C)=C\[C@@H](C)[C@@H](O)[C@@H](C)C/C(C)=C/C=C/[C@H](OC)[C@@H]([C@@H](C)[C@@H](O)[C@H](C)[C@@]2(O)C[C@@H](O)[C@H](C)[C@@H](C(C)C)O2)OC1=O [bafilomycin A1]
NOD/lt mice
  onset of islet beta cell destruction and hyperglycaemia: slight acceleration
Balb/c mice [1]; 1 day after administration
  net fluorescence emitted by islets (median): 57.9 arbitrary fluorescence units
Balb/c mice [1]; 7 days after administration
  net fluorescence emitted by islets (median): 59.9 arbitrary fluorescence units
Balb/c mice [2]
  plasma insulin level fifteen minutes after glucose challenge: 15±10
Balb/c mice [2]; fasting
  fasting plasma immunoreactive insulin level: 1.2±0.8
F-ATPase
  inhibition of F-ATPase activity: no detectable inhibition
vATPase
  inhibition of in vitro vATPase activity: sufficient to inhibit
Balb/c mice [3]; 1 day
  total islet area as a percentage of the total area of pancreas: 0.33%
Balb/c mice [3]; 1 day treatment group
  islet size vs controls: no differences
Balb/c mice [3]; 7 day treated mice
  total islet area as a percentage of the total area of pancreas: 0.30%
Balb/c mice [3]; 7 day treatment group
  islet size vs controls: no differences
Balb/c mice [3]; 26 day treated mice
  total islet area as a percentage of the total area of pancreas: 0.23%
Balb/c mice [3]; 90 day end-point
  morphology of kidney, liver, testes and brain: did not reveal any gross morphological changes
Balb/c mice [3]; 90 day end-point, 2 doses
  morphology of the islets: signs of fragmentation or neogenesis
Balb/c mice [3]; 90 day treated mice
  total islet area as a percentage of the total area of pancreas: 0.16%
Balb/c mice [3]; treated 26 days previously
  islet size vs controls: significant decrease
  mean islet size: 4900 μm2
Balb/c mice [3]; treated 90 days previously
  islet size vs controls: significant decrease
Balb/c mice [3]; treated 90 days previously, 2 doses
  mean islet size: 2800 μm^2
Balb/c mice [3]; treated twice a week apart
  increased level of RBG first detectable after treatment: 50 days
Balb/c mice [3]; treated twice a week apart, followed 90 days
  weight of treated vs control groups: did not differ significantly; also recorded: No significant difference
Balb/c mice [3]; treated twice a week apart, weekly measurement for 90 days
  random blood glucose levels (RBG) vs controls: small but significant increase
